In patent US11364218B2, “Method of treating or preventing mood disorders, mental disorders, and/or chronic fatigue syndrome” (priority 2016, dated 2022):

How the values were obtained:
mouse = assay: forced swimming test in mouse (antidepressant action); format: in vivo; conditions: for Immobile time average value / non-moving time: male ICR mice; for Immobile time average value: single forced oral dose 1 h before test (methocarbamol 200 mg/kg; etizolam 0.033 mg/kg), non-moving time in last 7 of 10 min, n=10; for non-moving time: single oral dose 1 h before test (methocarbamol 200 mg/kg; etizolam 0.033 mg/kg), last 7 of 10 min, medium control 230.8 seconds
Description: The antidepressant action of a test substance may be evaluated using a “forced swimming method” in a mouse model.
The forced swimming test in mouse models is an animal experimental method for confirming the antidepressant activity proposed by Porsalt (Arch. Int, pharmacydn. 229.327-336 (1977)).
A mouse placed into a pool indicates either an active state or a non-moving state. Decreases in the non-moving state of the mouse is used as an index to confirm the antidepressant action of a pharmaceutical composition.
The pool used for forced swimming was a glass cylindrical container 30 cm in height and 16 cm in inner diameter filled at a water depth of 20 cm at 25° c.
One hour before the test, 10 mL/kg of the above prepared methocarbamol aqueous solution was administered to the mouse only once (200 mg/kg in methocarbamol conversion).
The administration route was a forced oral administration using an installed mice oral administration sonde made by FUCHIGAMI with a syringe for injection made by TERUMO.
After one hour of forced administration, the mouse was placed in the forced swimming pool described above and left for 10 minutes.
The first three minutes after entering were considered a conditioning period, and the mouse's non-moving time in the remaining 7 minutes was measured.
“Non-motion” was defined by the mouse not moving the anterior limb and the posterior limb, and by a state in which the upper side of the neck is lifted from the water surface and floats.
The “non-moving time” was the sum of “non-motion” time.
The test was repeated 10 times for each mouse, and an average value was calculated.
An etizolam aqueous solution was used in place of a methocarbamol aqueous solution. The same test as described above (1) was performed, but with the administration amount converted to etizolam usage at 0.0333 mg/kg.
Distilled water not containing a pharmaceutical was used in place of the methocarbamol aqueous solution in the same manner as described above (1).
The average non-moving time values of the medium control group (n=10), the examples, and comparative examples (n=10) were compared with each other.

depression patients = assay: Test for administration to depression patients; format: in vivo, human
Procedure: Test for administration to depression patients (embodiment 1) A 500 mg bolaxin tablet (manufactured by Ying-Yuan chemical pharmaceutical co. ltd.) and 500 mg-containing (methocarbamol content 76% mass) were prepared. A subject suffering from depression for two or more years was selected. A pharmaceutical composition was administered to the patient three times a day, and the administration was continued for one week. The dose on the initial day was 3.0 to 4.5 g/day (converted to methocarbamol). After observing the patient's state, it was increased to 6.0 g/day (converted to methocarbamol). The regular drug in addition to the tested pharmaceutical composition was continuously taken, but drinking was prohibited during the test. After one week, a potential depression improvement effect before and after administration was evaluated. The evaluation investigated a significant difference in two-term judgment of two related groups. The evaluation was judged based on a declaration of whether the subjects felt an improvement in thinking, desires, and fatigue.

[1] = N=5 depression patients, bolaxin tablets three times a day for one week, 3.0 to 4.5 g/day increased to 6.0 g/day as methocarbamol

SMILES | Immobile time average value (mouse) [s] | non-moving time (mouse) [s] | antidepressant effect compared with etizolam group (forced swimming) (mouse; methocarbamol 200 mg/kg oral vs etizolam 0.033 mg/kg oral) | Effective (subjects declaring improvement in thinking, desires and fatigue) (depression patients; [1]) [persons] | No effect (depression patients; [1]) [persons] | depression treatment effect (depression patients; depression patients, one week of administration)
CCc1cc2c(s1)-n1c(C)nnc1CN=C2c1ccccc1Cl [Reagent E-1, Etizolam] | 107.3 | 107.3 | – | – | – | –
COc1ccccc1OCC(O)COC(N)=O (centres unmarked) [Reagent M-1, Methocarbamol] | 157.7 | 157.7 | essentially the same effect as the etizolam administration group | 5 | 0 | beneficial depression treatment effect
